Reference: patent publication US20260158011A1 (Achieve Life Sciences, Inc., priority 2023, published 2026)
Read-outs that look alike come from different tables or passages of the source.

What was measured:
[1] = system: adults who smoked 10 cigarettes per day
Protocol: Safety was assessed by measurement of vital signs and participant self-report of adverse events and concomitant medications on day 2 and at weekly visits during treatment from week 1 to 12 and through an additional 12-week follow-up. Hematology and chemistry laboratory tests were done at weeks 1, 6, and 12. Electrocardiograms were done at weeks 6 and 12. Clinically significant adverse events or abnormalities were followed until resolution or end of study.
The study had two primary endpoints. […] Study success was defined as either primary endpoint meeting statistical criterion. The secondary outcome measures were verified continuous cigarette abstinence to week 24 (weeks 3 to 24 for Arms B vs. A; weeks 9 to 24 for Arms C vs. A). A third secondary outcome measure compared the risk of relapse to smoking between weeks 6 and 24 among participants assigned to cytisinicline who achieved abstinence by week 6; these individuals were either switched to placebo at week 6 (Arm B) or continued cytisinicline to week 12 (Arm C). Other pre-specified endpoints included comparing the difference between arms in verified 7-day point-prevalence abstinence at each visit from week 2 through week 24 and assessing for evidence of effect modification for subsets defined by baseline attributes. To assess cigarette craving between groups, the Brief Questionnaire of Smoking Urges (QSU-brief) was administered at clinic visits on Day 0 and at Weeks 1 to 6 (4, 5). Safety outcomes included the incidence of treatment-emergent serious and non-serious adverse events during treatment with cytisinicline or placebo and clinically-significant changes in vital signs, laboratory tests or electrocardiograms.
Analyses for the binary primary and secondary outcomes were based on exact analyses 2×2 tables stratified by clinical site. Missed assessments of primary and secondary endpoints were imputed as non-success, thereby enabling analyses following the intent-to-treat principle. The Hochberg procedure was used to control for multiplicity (6). A target sample of 750 participants (n=250 per arm) was computed and verified using simulations to provide 96% power for specifications of an overall one-sided 0.025 type I error probability and success probabilities of 7% for placebo and 19% for cytisinicline. Sensitivity analyses included assessments of effect modification related to subsets defined by baseline attributes using logistic and cumulative logit models. Longitudinal analyses used Mixed Model for Repeated Measures methodology (7). Safety analyses included all randomized participants who received at least one dose of study drug. Analyses were conducted by BB.

adult e-cigarette users = conditions: for Saliva Cotinine Actual Value, Mean / Saliva Cotinine Actual Value, Median / Saliva Cotinine Change from Baseline, Mean / Saliva Cotinine Change from Baseline, Median: 12 Weeks arm, All Randomized Set; for Saliva Cotinine Change from Baseline, LS Means / Saliva Cotinine Change from Baseline, LS Means Difference from Placebo: repeated-measures ANOVA
Description: A second measurement consisted of biochemically verified continuous vaping abstinence at any time during treatment, with vaping abstinence at Week 3-6 or Week 6-9 for of cytisinicline treatment vs placebo. 7-day point prevalence rates were compared for vaping abstinence (Week 2 to 12) (FIG. 62). An additional measurement included reduction in daily vaping as measured by cotinine, where cytisinicline treatment vs placebo for a reduction in nicotine vaping using weekly quantitative cotinine levels from Week 2 to Week 12. Safety was assessed by adverse effects and serious adverse effects, considering number, severity, and attribution to study drug.
Cotinine: The data were analyzed by visit and also using a repeated measures model. […] Cotinine values less than 1 were converted to 1 due to asymmetry.

[2] = Arm B Cytisinicline 6 weeks + placebo 6 weeks, N = 269
[3] = Arm B Cytisinicline 6 weeks + placebo 6 weeks, of 459 events
[4] = Arm C Cytisinicline 12 weeks, N = 270
[5] = Arm C Cytisinicline 12 weeks, of 494 events

SMILES: O=c1cccc2n1C[C@@H]1CNC[C@H]2C1 [cytisine, (−)-Cytisine]
- Treatment-emergent adverse events reported ([1]; 6-week cytisinicline arm): 172 (63.9%) participants (%)
- Treatment-emergent adverse events reported ([1]; 12-week cytisinicline arm): 184 (68.2%) participants (%)
- OR for serious adverse events, cytisinicline versus placebo ([1]; 539 cytisinicline vs 270 placebo participants): 3.08
- Study drug discontinuation due to adverse events ([1]; Arm B): 2.6%
- Number of treatment emergent adverse events [1, 2]: 459
- Participants with Abnormal dreams (treatment-emergent adverse event), % [1, 2]: 8.2%
- Participants with Anxiety (treatment-emergent adverse event), % [1, 2]: 2.6%
- Participants with Constipation (treatment-emergent adverse event), % [1, 2]: 5.9%
- Participants with Diarrhea (treatment-emergent adverse event), % [1, 2]: 3.7%
- Participants with Headache (treatment-emergent adverse event), % [1, 2]: 6.7%
- Participants with Insomnia (treatment-emergent adverse event), % [1, 2]: 8.6%
- Participants with Nausea (treatment-emergent adverse event), % [1, 2]: 5.9%
- Participants with any serious adverse event, % [1, 2]: 3.7%
- Participants with any treatment emergent adverse event, % [1, 2]: 63.9%
- Participants with any treatment-related serious adverse event, % [1, 2]: 0%
- Treatment emergent adverse events, Mild, % [1, 3]: 63.2%
- Treatment emergent adverse events, Moderate, % [1, 3]: 32.2%
- Treatment emergent adverse events, Severe, % [1, 3]: 4.6%
- Study drug discontinuation due to adverse events ([1]; Arm C): 3.7%
- Number of treatment emergent adverse events [1, 4]: 494
- Participants with Abnormal dreams (treatment-emergent adverse event), % [1, 4]: 7.8%
- Participants with Anxiety (treatment-emergent adverse event), % [1, 4]: 5.6%
- Participants with Constipation (treatment-emergent adverse event), % [1, 4]: 4.8%
- Participants with Diarrhea (treatment-emergent adverse event), % [1, 4]: 4.4%
- Participants with Headache (treatment-emergent adverse event), % [1, 4]: 7.8%
- Participants with Insomnia (treatment-emergent adverse event), % [1, 4]: 9.6%
- Participants with Nausea (treatment-emergent adverse event), % [1, 4]: 5.6%
- Participants with any serious adverse event, % [1, 4]: 3.0%
- Participants with any treatment emergent adverse event, % [1, 4]: 68.2%
- Participants with any treatment-related serious adverse event, % [1, 4]: 0%
- Treatment emergent adverse events, Mild, % [1, 5]: 61.3%
- Treatment emergent adverse events, Moderate, % [1, 5]: 36.0%
- Treatment emergent adverse events, Severe, % [1, 5]: 2.6%
- Treatment-related SAEs ([1]; all arms): No SAE was judged to be treatment-related
- Serious adverse events (SAEs) ([1]; of 539 participants on cytisinicline): 18 (3.3%) participants (%)
- Study drug discontinuation due to adverse events ([1]; of 539 participants receiving cytisinicline (Arms B and C)): 17 (3.2%) participants (%)
- Saliva Cotinine Actual Value, Mean (adult e-cigarette users; Week 2): 133.598 ng/mL
- Saliva Cotinine Actual Value, Median (adult e-cigarette users; Week 2): 70.200 ng/mL
- Saliva Cotinine Change from Baseline, Mean (adult e-cigarette users; Week 2): -185.522 ng/mL
- Saliva Cotinine Change from Baseline, Median (adult e-cigarette users; Week 2): -182.015 ng/mL
- Saliva Cotinine Change from Baseline, LS Means (adult e-cigarette users; Week 2): -181.306 ng/mL
- Saliva Cotinine Change from Baseline, LS Means Difference from Placebo (adult e-cigarette users; Week 2): -32.506 ng/mL
- Saliva Cotinine Actual Value, Mean (adult e-cigarette users; Week 3): 112.224 ng/mL
- Saliva Cotinine Actual Value, Median (adult e-cigarette users; Week 3): 2.495 ng/mL
- Saliva Cotinine Change from Baseline, Mean (adult e-cigarette users; Week 3): -210.563 ng/mL
- Saliva Cotinine Change from Baseline, Median (adult e-cigarette users; Week 3): -210.500 ng/mL
- Saliva Cotinine Change from Baseline, LS Means (adult e-cigarette users; Week 3): -205.329 ng/mL
- Saliva Cotinine Change from Baseline, LS Means Difference from Placebo (adult e-cigarette users; Week 3): -72.832 ng/mL
- Saliva Cotinine Actual Value, Mean (adult e-cigarette users; Week 4): 112.055 ng/mL
- Saliva Cotinine Actual Value, Median (adult e-cigarette users; Week 4): 1.710 ng/mL
- Saliva Cotinine Change from Baseline, Mean (adult e-cigarette users; Week 4): -206.833 ng/mL
- Saliva Cotinine Change from Baseline, Median (adult e-cigarette users; Week 4): -203.500 ng/mL
- Saliva Cotinine Change from Baseline, LS Means (adult e-cigarette users; Week 4): -202.672 ng/mL
- Saliva Cotinine Change from Baseline, LS Means Difference from Placebo (adult e-cigarette users; Week 4): -74.090 ng/mL
- Saliva Cotinine Actual Value, Mean (adult e-cigarette users; Week 5): 111.201 ng/mL
- Saliva Cotinine Actual Value, Median (adult e-cigarette users; Week 5): 1.565 ng/mL
- Saliva Cotinine Change from Baseline, Mean (adult e-cigarette users; Week 5): -204.721 ng/mL
- Saliva Cotinine Change from Baseline, Median (adult e-cigarette users; Week 5): -187.000 ng/mL
- Saliva Cotinine Change from Baseline, LS Means (adult e-cigarette users; Week 5): -201.526 ng/mL
- Saliva Cotinine Change from Baseline, LS Means Difference from Placebo (adult e-cigarette users; Week 5): -83.364 ng/mL
- Saliva Cotinine Actual Value, Mean (adult e-cigarette users; Week 6): 123.705 ng/mL
- Saliva Cotinine Actual Value, Median (adult e-cigarette users; Week 6): 1.480 ng/mL
- Saliva Cotinine Change from Baseline, Mean (adult e-cigarette users; Week 6): -199.608 ng/mL
- Saliva Cotinine Change from Baseline, Median (adult e-cigarette users; Week 6): -168.500 ng/mL
- Saliva Cotinine Change from Baseline, LS Means (adult e-cigarette users; Week 6): -196.960 ng/mL
- Saliva Cotinine Change from Baseline, LS Means Difference from Placebo (adult e-cigarette users; Week 6): -79.952 ng/mL
- Saliva Cotinine Actual Value, Mean (adult e-cigarette users; Week 7): 133.054 ng/mL
- Saliva Cotinine Actual Value, Median (adult e-cigarette users; Week 7): 0 ng/mL
- Saliva Cotinine Change from Baseline, Mean (adult e-cigarette users; Week 7): -181.605 ng/mL
- Saliva Cotinine Change from Baseline, Median (adult e-cigarette users; Week 7): -184.000 ng/mL
- Saliva Cotinine Change from Baseline, LS Means (adult e-cigarette users; Week 7): -179.597 ng/mL
- Saliva Cotinine Change from Baseline, LS Means Difference from Placebo (adult e-cigarette users; Week 7): -49.309 ng/mL
- Saliva Cotinine Actual Value, Mean (adult e-cigarette users; Week 8): 125.966 ng/mL
- Saliva Cotinine Actual Value, Median (adult e-cigarette users; Week 8): 0 ng/mL
- Saliva Cotinine Change from Baseline, Mean (adult e-cigarette users; Week 8): -188.539 ng/mL
- Saliva Cotinine Change from Baseline, Median (adult e-cigarette users; Week 8): -194.655 ng/mL
- Saliva Cotinine Change from Baseline, LS Means (adult e-cigarette users; Week 8): -192.048 ng/mL
- Saliva Cotinine Change from Baseline, LS Means Difference from Placebo (adult e-cigarette users; Week 8): -78.107 ng/mL
- Saliva Cotinine Actual Value, Mean (adult e-cigarette users; Week 9): 121.622 ng/mL
- Saliva Cotinine Actual Value, Median (adult e-cigarette users; Week 9): 2.030 ng/mL
- Saliva Cotinine Change from Baseline, Mean (adult e-cigarette users; Week 9): -202.849 ng/mL
- Saliva Cotinine Change from Baseline, Median (adult e-cigarette users; Week 9): -199.000 ng/mL
- Saliva Cotinine Change from Baseline, LS Means (adult e-cigarette users; Week 9): -195.014 ng/mL
- Saliva Cotinine Change from Baseline, LS Means Difference from Placebo (adult e-cigarette users; Week 9): -86.006 ng/mL
- Saliva Cotinine Actual Value, Mean (adult e-cigarette users; Week 10): 127.718 ng/mL
- Saliva Cotinine Actual Value, Median (adult e-cigarette users; Week 10): 4.100 ng/mL
- Saliva Cotinine Change from Baseline, Mean (adult e-cigarette users; Week 10): -200.886 ng/mL
- Saliva Cotinine Change from Baseline, Median (adult e-cigarette users; Week 10): -197.500 ng/mL
- Saliva Cotinine Change from Baseline, LS Means (adult e-cigarette users; Week 10): -196.615 ng/mL
- Saliva Cotinine Change from Baseline, LS Means Difference from Placebo (adult e-cigarette users; Week 10): -62.680 ng/mL
- Saliva Cotinine Actual Value, Mean (adult e-cigarette users; Week 11): 137.834 ng/mL
- Saliva Cotinine Actual Value, Median (adult e-cigarette users; Week 11): 10.900 ng/mL
- Saliva Cotinine Change from Baseline, Mean (adult e-cigarette users; Week 11): -187.683 ng/mL
- Saliva Cotinine Change from Baseline, Median (adult e-cigarette users; Week 11): -177.500 ng/mL
- Saliva Cotinine Change from Baseline, LS Means (adult e-cigarette users; Week 11): -186.878 ng/mL
- Saliva Cotinine Change from Baseline, LS Means Difference from Placebo (adult e-cigarette users; Week 11): -63.262 ng/mL
- Saliva Cotinine Actual Value, Mean (adult e-cigarette users; Week 12): 157.889 ng/mL
- Saliva Cotinine Actual Value, Median (adult e-cigarette users; Week 12): 36.550 ng/mL
- Saliva Cotinine Change from Baseline, Mean (adult e-cigarette users; Week 12): -172.588 ng/mL
- Saliva Cotinine Change from Baseline, Median (adult e-cigarette users; Week 12): -178.000 ng/mL
- Saliva Cotinine Change from Baseline, LS Means (adult e-cigarette users; Week 12): -167.731 ng/mL
- Saliva Cotinine Change from Baseline, LS Means Difference from Placebo (adult e-cigarette users; Week 12): -57.329 ng/mL
- Saliva Cotinine Actual Value, Mean (adult e-cigarette users; Week 16): 181.742 ng/mL
- Saliva Cotinine Actual Value, Median (adult e-cigarette users; Week 16): 140.000 ng/mL
- Saliva Cotinine Change from Baseline, Mean (adult e-cigarette users; Week 16): -146.358 ng/mL
- Saliva Cotinine Change from Baseline, Median (adult e-cigarette users; Week 16): -116.000 ng/mL
- Saliva Cotinine Change from Baseline, LS Means (adult e-cigarette users; Week 16): -145.035 ng/mL
- Saliva Cotinine Change from Baseline, LS Means Difference from Placebo (adult e-cigarette users; Week 16): -54.792 ng/mL
